Reference: patent publication US12643913B2, “Mcl-1 inhibitor formulations” (AMGEN INC., priority 2020, dated 2026)
Entries after “also recorded” stand apart in the source; their conditions may differ. Like-named read-outs stand apart in the source and are kept apart here.

Legend:
[1] = Pharmacokinetics after oral gavage to male beagle dogs with different pre-treatments (Amgen study 150528); assay type: in vivo; details: 3 mg/kg PO; for Decrease in exposure / bioavailability with change of stomach pH: beagle dogs; for half-life: read-out: T½ (converted); for bioavailability: compared to Phase 1 of the same form, read-out: Relative % F
Protocol: The pharmacokinetics of AMG 397 were assessed following oral administration to male beagle dogs as either a suspension of the crystalline hydrate form of AMG 397 or an amorphous suspension in 2% HPMC, 0.01% Tween 80. The full protocol is described in Amgen study number 150528. The goal of this study was to determine if the amorphous material would lead to increases in bioavailability and if variability in dosing could be reduced. In addition, oncology patients could be receiving acid-reducing agents as co-medication, so it is important to determine if exposure is reduced with elevated stomach pH and if an amorphous formulation of AMG 397 could overcome the drug-drug interaction (DDI). For the studies below, Form 1 is the crystalline hydrate form of AMG 397 and amorphous is the amorphous form of AMG 397.
(§1) Briefly, during each phase five male beagle dogs were assigned to each group of the study. All animals were fasted for at least eight hours prior to dosing and through the first four hours of blood sample collection for each phase. Food was returned within 30 minutes following collection of the last blood sample at the four-hour collection interval. Each animal in Phase 1, received a single oral (PO) gavage dose of the appropriate test article formulation as outlined in the study design Table 6. Oral gavage dosing formulations were continuously stirred throughout dosing. The gavage tube was rinsed with approximately 10 mL of tap water following dosing (prior to removal of the gavage tube). Following each study phase a 7-day washout period was allowed prior to the dosing of the next phase. The same five dogs were assigned to either group 1 or group 2 formulations for the duration of the study.
(§2) Test Article Administration: A total of 10 male beagle dogs were initially assigned to study. All animals were fasted for at least eight hours prior to dosing and through the first four hours of blood sample collection for each phase, where applicable (food will be returned within 30 minutes following collection of the last blood sample at the four hour collection interval, where applicable). Total fasting time […] 24 hours.
(§3) Each animal in Phase 1, Groups 1 and 2 received a single oral (PO) gavage dose of the appropriate test article formulation as outlined in the following study design table. Oral gavage dosing formulations was continuously stirred throughout dosing. The gavage tube was rinsed with approximately 10 mL of tap water following dosing (prior to removal of the gavage tube). No pre-treatment will be required for Phase 1.
as §3, with “After a 7-day washout period, each” for “Each”, “2,” for “1,”, “land” for “1 and”, “were” for “was”, “Two hours prior to dosing, each animal received two 20 mg (40 mg total) oral tablets of famotidine followed by a 10 mL dose of deionized water.” for “No pre-treatment will be required for Phase 1.”
After another 7-day washout period, each animal in Phase 3, Groups land 2 received a single oral (PO) gavage dose of the appropriate test article formulation as outlined in the following study design table. Oral gavage dosing formulations were continuously stirred throughout dosing. The gavage tube was rinsed with approximately 10 mL of tap water following dosing (prior to removal of the gavage tube). Thirty minutes prior to dosing, each animal received an intramuscular dose of pentagastrin in phosphate buffered saline at a dose level of 0.006 mg/kg and a dose volume of 0.05 mL/kg.
After a final 7-day washout period, each animal in Phase 4, Groups 1 and 2 received a single oral (PO) gavage dose of the appropriate test article formulation as outlined in the following study design table. Oral gavage dosing formulations were continuously stirred throughout dosing. […]

[2] = Moisture sorption profile (DVS); assay type: physicochemical; details: by 95% RH; listed as crystalline hydrate form of AMG 397
Protocol: Moisture Sorption: Moisture sorption data was collected using a Surface Measurement Systems DVSAdvantage instrument. Equilibrium criteria were set at ±0.001% weight change in 10 minutes with a maximum equilibrium time of 380 minutes.
Moisture Sorption: Moisture sorption data was collected using a Surface Measurement Systems DVSAdvantage instrument. Equilibrium criteria were set at ±0.001% weight change in 10 minutes with a maximum equilibrium time of 360 minutes.

[3] = Clinical observations in the beagle dog PK study; assay type: in vivo, male beagle dogs; details: 3 mg/kg PO, individual dogs, listed as AMG 397 Form 1
Protocol: as §1, §2
Different pre-treatments were assigned for each phase of the study to mimic several scenarios: • 1. No pre-treatment was administered for Phase 1 as it served as a control. • 2. During Phase 2, at 1 hour 54 minutes to 1 hour 58 minutes prior to dose administration, all animals were pretreated with two 20 mg (40 mg total) oral tablets of famotidine followed by a 10 mL dose of deionized water. […] This was used to determine the role of stomach pH on exposure. • 3. During Phases 3 and 4, at 30 to 38 minutes prior to dose administration, all animals were pretreated with a single intramuscular dose of pentagastrin in phosphate buffered saline, pH 7.4, at a dose level of 0.006 mg/kg and a dose volume of 0.05 mL/kg. The pentagastrin dose was used to ensure that the dogs stomach pH was normalized to pH ˜2.0 as it is known that the dogs stomach pH is often higher than that of humans under resting conditions. • 4. In addition, […], at 1 hour 3 minutes to 1 hour 6 minutes prior to dose administration and 4 hours 10 minutes to 4 hours 11 minutes following dose by oral gavage at a dose level of 3 mg/kg and a dose volume of 4 mL/kg. This final phase was used to study if P-gp played a role in absorption.

[4] = Phase 1, no pre-treatment, male beagle dogs
[5] = Phase 2, famotidine pre-treatment (stomach pH ~6.5), male beagle dogs
[6] = male, beagle, dog, plasma, po, 3 mg/kg, Phase 3, pentagastrin pre-treatment (stomach pH ~2.0), male beagle dogs
[7] = male, beagle, dog, plasma, po, 3 mg/kg, Phase 4, pentagastrin pre-treatment + P-gp inhibitor GF120918, male beagle dogs

- AUCt [1, 4]: 5.5 µM·h
- Cl/F [1, 4]: 41.7 mL/min/kg
- Cmax [1, 4]: 230 nM
- Tmax [1, 4]: 12.4 h
- AUCt [1, 5]: 6.3 µM·h
- Cl/F [1, 5]: 43.3 mL/min/kg
- Cmax [1, 5]: 260 nM
- Cl/F ([1]; Phase 3, pentagastrin pre-treatment (stomach pH ~2.0), male beagle dogs): 13.8 mL/min/kg
- Decrease in exposure / bioavailability with change of stomach pH ([1]; listed as crystalline hydrate form of AMG 397, 3 mg/kg): ≤ 2 fold
- Decrease in exposure / bioavailability with change of stomach pH ([1]; listed as crystalline hydrate form, 3 mg/kg): 2 fold
- half-life ([1]; male, beagle, dog, plasma, po, 3 mg/kg, Phase 1, no pre-treatment, male beagle dogs): 17.3 h
- bioavailability ([1]; male, beagle, dog, plasma, po, 3 mg/kg, Phase 1, no pre-treatment): 100%
- Tmax ([1]; male, beagle, dog, plasma, po, 3 mg/kg, Phase 2, famotidine pre-treatment (stomach pH ~6.5), male beagle dogs, read-out: Tmax): 12.8 h
- half-life ([1]; male, beagle, dog, plasma, po, 3 mg/kg, Phase 2, famotidine pre-treatment (stomach pH ~6.5), male beagle dogs): 16.5 h
- bioavailability ([1]; male, beagle, dog, plasma, po, 3 mg/kg, Phase 2, famotidine pre-treatment): 113%
- AUC(0-t) [1, 6]: 11.3 µM·h
- Cmax [1, 6]: 450 nM
- Tmax ([1]; male, beagle, dog, plasma, po, 3 mg/kg, Phase 3, pentagastrin pre-treatment (stomach pH ~2.0), male beagle dogs, read-out: Tmax): 13.2 h
- half-life [1, 6]: 23.3 h
- AUC(0-t) [1, 7]: 16.3 µM·h
- CL/F [1, 7]: 5.17 mL/min/kg
- Cmax [1, 7]: 600 nM
- Tmax ([1]; male, beagle, dog, plasma, po, 3 mg/kg, Phase 4, pentagastrin pre-treatment + P-gp inhibitor GF120918, male beagle dogs, read-out: Tmax): 11.6 h
- half-life [1, 7]: 25 h
- Moisture sorption weight gain [2]: 3.3%
- Positive clinical findings (observation) ([3]; Phase 2 (Days 8 to 14), famotidine pre-treatment): Limb function impaired
- Positive clinical findings (observation) ([3]; Phase 4 (Days 22 to 24), pentagastrin pre-treatment and inhibitor GF120918 pre- and post-treatment): Large amount of white,
Structure (SMILES): CO[C@]1(CN2CCN3CCCC[C@@H]3C2)/C=C/C[C@H](C)[C@@H](C)S(=O)(=O)NC(=O)c2ccc3c(c2)N(C[C@@H]2CC[C@H]21)C[C@@]1(CCCc2cc(Cl)ccc21)CO3 [AMG 397 Crystalline Hydrate]
- Positive clinical findings (observation) ([3]; Phase 3 (Days 15 to 21), pentagastrin pre-treatment): White, frothy vomitus; also recorded: Limb function impaired; also recorded: Wet hair on entire body; also recorded: Inappetence
